Series [1] concerns 3T3-L1. The series can be described thus: Cytotoxicity against mouse 3T3L1 cells. It is filed as cell-based.
Series [2] concerns 3T3-L1. Description: Anti-adipogenic activity in mouse 3T3L1 preadipocytes assessed as reduction in lipid accumulation at 20 uM by Oil Red O absorbance assay. It is filed as functional, cell-based.
Series [3] is filed under the species Mus musculus. Description: Inhibition of PPARgamma/CEBPalpha-mediated increase in aP2 protein expression in mouse 3T3L1 preadipocytes at 20 uM up to 6 days by Western blot analysis. It is filed as cell-based.
For series [4], the target named is CCAAT/enhancer-binding protein alpha (Mus musculus) (UniProt P53566). Description: Inhibition of C/EBPalpha protein expression in mouse 3T3L1 preadipocytes at 20 uM up to 6 days by Western blot analysis. The series is classed as cell-based. (A western blot detects proteins with antibodies after separation by electrophoresis.)
For series [5], the species on record is Mus musculus. The series can be described thus: Inhibition of PPARgamma/CEBPalpha-mediated increase in aP2 mRNA levels in mouse 3T3L1 preadipocytes at 20 uM after 6 days by RT-PCR analysis. It is filed as cell-based.
Series [6] is filed under the species Mus musculus. Description: Inhibition of PPARgamma/CEBPalpha-mediated increase in FAS protein expression in mouse 3T3L1 preadipocytes at 20 uM up to 6 days by Western blot analysis. It is filed as cell-based.
Series [7] deals with 3T3-L1. The series can be described thus: Anti-adipogenic activity in mouse 3T3L1 preadipocytes in differentiation media assessed as reduction in lipid accumulation by Oil Red O staining microscopic method. It is filed as functional, cell-based.
The target of series [8] is T1, Peroxisome proliferator-activated receptor gamma (Mus musculus) (UniProt P37238).
T1 sequence (whole entry): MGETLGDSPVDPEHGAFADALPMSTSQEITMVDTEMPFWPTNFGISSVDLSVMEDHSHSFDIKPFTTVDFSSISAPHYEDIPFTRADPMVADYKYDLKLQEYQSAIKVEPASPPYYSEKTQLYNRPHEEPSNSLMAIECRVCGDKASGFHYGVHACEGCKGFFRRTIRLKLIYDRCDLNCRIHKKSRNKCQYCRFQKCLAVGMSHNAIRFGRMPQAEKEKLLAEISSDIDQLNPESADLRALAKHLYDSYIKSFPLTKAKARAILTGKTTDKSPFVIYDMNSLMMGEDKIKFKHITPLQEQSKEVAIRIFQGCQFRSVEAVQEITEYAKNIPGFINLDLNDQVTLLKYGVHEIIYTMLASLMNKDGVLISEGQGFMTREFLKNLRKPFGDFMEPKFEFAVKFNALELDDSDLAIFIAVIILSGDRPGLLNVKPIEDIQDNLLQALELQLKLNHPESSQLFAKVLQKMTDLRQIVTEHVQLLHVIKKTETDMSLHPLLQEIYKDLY
Description: Inhibition of PPARgamma protein expression in mouse 3T3L1 preadipocytes at 20 uM up to 6 days by Western blot analysis. The series is classed as cell-based.

Series [9] deals with 3T3-L1. Description: Anti-adipogenic activity in mouse 3T3L1 preadipocytes assessed as reduction in MDI induced-lipid accumulation at 10 uM after 20 mins by Oil Red O staining-based assay. It is filed as functional, cell-based.
Series [10] deals with 3T3-L1. The series can be described thus: Anti-adipogenic activity in mouse 3T3L1 cells assessed as reduction in lipid accumulation at 20 uM incubated for 4 to 6 days by Oil Red O staining based microscopic method. It is filed as functional, cell-based.
The test system of series [11] is 3T3-L1. Description: Cell cycle arrest in mouse 3T3L1 cells assessed as accumulation at S phase at 10 to 20 uM after 16 hrs by propidium iodide-staining based flow cytometry. It is filed as functional. A general note: In flow cytometry, cells or beads pass a laser one at a time.
The subject of series [12] is 3T3-L1. The series can be described thus: Anti-adipogenic activity in mouse 3T3L1 cells assessed as reduction in lipid accumulation at 20 uM incubated for 2 to 4 days by Oil Red O absorbance method. The series is classed as functional, cell-based.
The species entered for series [13] is Mus musculus. The series can be described thus: Inhibition of PPARgamma/CEBPalpha-mediated increase in FAS mRNA levels in mouse 3T3L1 preadipocytes at 20 uM after 6 days by RT-PCR analysis. It is filed as cell-based.
Series [14] deals with 3T3-L1. The series can be described thus: Anti-adipogenic activity in mouse 3T3L1 cells assessed as reduction in lipid accumulation at 20 uM incubated for 2 to 4 days by Oil Red O staining based microscopic method. The series is classed as functional, cell-based.
Series [15] deals with 3T3-L1. Description: Anti-adipogenic activity in mouse 3T3L1 preadipocytes in differentiation medium assessed as reduction in lipid accumulation at 20 uM by Oil Red O absorbance assay relative to control. It is filed as functional. On the set-up: scale not given: the % may be the effect or the level left.
Series [16] has as its system 3T3-L1. Description: Anti-adipogenic activity in mouse 3T3L1 cells assessed as reduction in lipid accumulation at 20 uM incubated for 2 to 6 days by Oil Red O staining based microscopic method. It is filed as functional, cell-based.
The test system of series [17] is 3T3-L1. The series can be described thus: Cell cycle arrest in mouse 3T3L1 cells assessed as accumulation at S phase at 10 uM after 24 hrs by propidium iodide-staining based flow cytometry (reference value: 22%). It is filed as functional.
Series [18] concerns 3T3-L1. Description: Anti-adipogenic activity in mouse 3T3L1 cells assessed as reduction in lipid accumulation at 20 uM incubated up to 6 days by Oil Red O absorbance assay. The series is classed as functional, cell-based.
In series [19] the target is CCAAT/enhancer-binding protein alpha (Mus musculus) (UniProt P53566). The series can be described thus: Inhibition of C/EBPalpha mRNA levels in mouse 3T3L1 preadipocytes at 20 uM after 6 days by RT-PCR analysis. It is filed as cell-based.
The subject of series [20] is 3T3-L1. Description: Anti-adipogenic activity in mouse 3T3L1 cells assessed as reduction in lipid accumulation at 20 uM incubated for 2 to 6 days by Oil Red O absorbance method. It is filed as functional, cell-based.
For series [21], the system named is 3T3-L1. Description: Anti-adipogenic activity in mouse 3T3L1 cells assessed as reduction in lipid accumulation at 20 uM incubated up to 6 days by Oil Red O staining based microscopic method. The series is classed as functional, cell-based.
In series [22] the test system is 3T3-L1. Description: Cell cycle arrest in mouse 3T3L1 cells assessed as accumulation at S phase at 20 uM after 24 hrs by propidium iodide-staining based flow cytometry (reference value: 22%). It is filed as functional.
The subject of series [23] is 3T3-L1. The series can be described thus: Anti-adipogenic activity in mouse 3T3L1 cells assessed as reduction in lipid accumulation at 20 uM incubated for 4 to 6 days by Oil Red O absorbance method. It is filed as functional, cell-based.
Series [24] concerns the target T1, Peroxisome proliferator-activated receptor gamma (Mus musculus). The series can be described thus: Inhibition of PPARgamma mRNA levels in mouse 3T3L1 preadipocytes at 20 uM after 6 days by RT-PCR analysis. It is filed as cell-based.

SMILES strings stand for the structures. Activity calls are given as the source filed them. No cut-off for these calls is given here. A value given as a limit tells only on which side of the number the result lay.

Results on twelve molecules are retold here after ChEMBL document CHEMBL4138234, “Aegeline inspired synthesis of novel amino alcohol and thiazolidinedione hybrids with antiadipogenic activity in 3T3-L1 cells” (Eur J Med Chem, 2018).

Sequence of CCAAT/enhancer-binding protein alpha (Mus musculus) (P53566 whole entry): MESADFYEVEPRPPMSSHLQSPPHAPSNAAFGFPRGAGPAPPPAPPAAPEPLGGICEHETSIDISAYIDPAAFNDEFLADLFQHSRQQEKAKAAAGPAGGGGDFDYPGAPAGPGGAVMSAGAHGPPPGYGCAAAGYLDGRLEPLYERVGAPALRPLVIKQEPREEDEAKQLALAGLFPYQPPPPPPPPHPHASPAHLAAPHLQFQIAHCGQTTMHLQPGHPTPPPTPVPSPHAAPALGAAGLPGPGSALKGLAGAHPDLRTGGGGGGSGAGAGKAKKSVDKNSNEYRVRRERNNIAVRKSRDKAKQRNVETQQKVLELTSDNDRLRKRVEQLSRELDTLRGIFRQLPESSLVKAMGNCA

On to `CC(NCC(O)COc1ccc(/C=C2\SC(=O)N(Cc3ccccc3Br)C2=O)cc1)c1ccccc1` (centres undefined), for which the Activity entry in the series on 3T3-L1 [1] was “Toxic”.
Consider `O=C(Cc1ccc(Cl)cc1)OCC(O)COc1ccc(/C=C2\SC(=O)NC2=O)cc1` (centres undefined), for which the result with 3T3-L1 [2] was inactive.
For the molecule `CC(NCC(O)COc1ccc(/C=C2\SC(=O)N(Cc3ccccc3)C2=O)cc1)c1ccccc1` (centres undefined), the Activity entry with 3T3-L1 [1] was “Toxic”.
Take `O=C1S/C(=C\c2ccc(OCC(O)CNCc3ccccn3)cc2)C(=O)N1Cc1ccccc1Br` (centres undefined): the outcome with 3T3-L1 [2] was Active.
As for `O=C1S/C(=C\c2ccc(OCC(O)CNCc3ccccn3)cc2)C(=O)N1Cc1ccc(F)cc1` (centres undefined), in the series on 3T3-L1 [1], the Activity result was “Toxic”.
On to `O=C1S/C(=C\c2ccc(OCC(O)CNCc3ccccn3)cc2)C(=O)N1Cc1ccccc1` (centres undefined), for which the inhibition entry (in the series listed under Mus musculus [3]; in series [4]; in the series filed under Mus musculus [5]; in the series listed under Mus musculus [6]; in [8]; in the series listed under Mus musculus [13]) was “Active” in each case. For the same molecule, the inhibition entry in series [19] and in series [24] was “Active” in each case. For the same molecule, the outcome with 3T3-L1 [2], in the series on 3T3-L1 [9], in the series on 3T3-L1 [10], in the series on 3T3-L1 [12], in the series with 3T3-L1 [14] and with 3T3-L1 [16] was Active. The result in the series on 3T3-L1 [18], in the series with 3T3-L1 [20], in the series with 3T3-L1 [21] and in the series with 3T3-L1 [23] was Active. Moreover, the Activity result in the series on 3T3-L1 [7] is “Dose-dependent effect”; in the series with 3T3-L1 [15], above 50%; in the series on 3T3-L1 [17] it was 37%; in the series on 3T3-L1 [22], 36%. The outcome with 3T3-L1 [11] was inactive.
Consider `O=C1S/C(=C\c2ccc(OCC(O)CNCc3cccnc3)cc2)C(=O)N1Cc1ccccc1` (centres undefined), for which the outcome in the series on 3T3-L1 [2] was inactive.
On the same count and under the same terms, for `O=C1NC(=O)/C(=C/c2ccc(OCC(O)COC(=O)c3cccnc3)cc2)S1` (centres undefined) the value was “inactive”.
Regarding `COc1ccc(C(=O)OCC(O)COc2ccc(/C=C3\SC(=O)NC3=O)cc2)c(OC)c1` (centres undefined), the result in the series on 3T3-L1 [2] was inactive.
Consider `O=C1S/C(=C\c2ccc(OCC(O)CNCc3cccnc3)cc2)C(=O)N1Cc1ccc(F)cc1` (centres undefined), for which the outcome in the series with 3T3-L1 [2] was inactive.
On the same count and under the same terms, for `O=C1NC(=O)/C(=C/c2ccc(OCC(O)COC(=O)c3ccc(Cl)nc3)cc2)S1` (centres undefined) the value was “inactive”; for `O=C1S/C(=C\c2ccc(OCC(O)CNCc3cccnc3)cc2)C(=O)N1Cc1ccccc1Br` (centres undefined), “inactive”.
